Test system: beta-catenin
Experiment: Western blot of beta-catenin in adult neuronal stem and progenitor cells after inhibition of the Wnt signal pathway
Type: cell-based, rat
Conditions: genistein 50 μM, undifferentiated and differentiated, densitometry of Western blot, versus cells without inhibition
Protocol: To inhibit the Wnt signal pathway, the unspecific kinase inhibitor genistein is added at a concentration of 50 μM in order to inhibit the action of glycogen synthase kinase 3 (GSK 3) (Murase S et al., 2002, Neuron, 35, 91-105).
Subsequently, a protein extract (see above, example 1) is prepared and the beta-catenin protein is identified by one dimensional gel electrophoresis and Western blotting (FIG. 3, FIG. 4).
The protein extracts of the adult neuronal stem cells are first fractionated in a 12% polyacrylamide gel in Lammli buffer consisting of 2% (w/v) sodium dodecylsulfate, 10% (v/v) glycerol, 100 mM dithiothreitol, 60 mM Tris-HCl, pH 6.8, 0.001% bromophenol blue and 5% 2-mercaptoethanol and applied to a nitrocellulose membrane (Optitran BA-S83, 0.2 μm, Schleicher & Schnell, Dassel, Germany) by the semi-dry blotting method (Kyhse-Andersen J, 1984, J Biochem Biophys Methods, 10, 203-209). […] Antibody binding is detected by way of chemiluminescent signals. […] The X-ray films are developed and measured densitometrically. […]

O=c1c(-c2ccc(O)cc2)coc2cc(O)cc(O)c12 [genistein, 4′,5,7-trihydroxyisoflavone]
reduction of β-catenin expression (factor): ~2
